Consider two compounds from ChEMBL document CHEMBL1134161, “Stereospecific synthesis of (2S)-2-methyl-3-(2',6'-dimethyl-4'-hydroxyphenyl)-propionic acid (Mdp) and its incorporation into an opioid peptide” (Bioorg Med Chem Lett, 2001).

Peptide text beside a SMILES is read from it. * marks the point of attachment. X1 = Cc1cc(O)cc(C)c1C[C@H](C)C(=O)*

The species named for test [1] is Mus musculus. Briefly: In vitro inhibition of electrically evoked contractions of mouse vas deferens(MVD). In kind it is functional, organism-based.
For test [2], the target named is Kappa-type opioid receptor (Homo sapiens, UniProt P41145). Briefly: Tested for binding affinity towards Opioid receptor kappa 1.
For test [3], the species on record is Cavia porcellus. The test can be described thus: In vitro inhibition of electrically evoked contractions of guinea pig ileum(GPI). In kind it is functional.
The species named for test [4] is Cavia porcellus. Briefly: Tested for antagonistic activity against Mu agonist TAPP in the GPI assay. The format is functional.
Test [5] is filed under the species Mus musculus. Briefly: Tested for antagonistic activity against Delta agonist DPDPE in the MVD assay. The format is functional.

Sequence of Kappa-type opioid receptor (P41145 whole entry): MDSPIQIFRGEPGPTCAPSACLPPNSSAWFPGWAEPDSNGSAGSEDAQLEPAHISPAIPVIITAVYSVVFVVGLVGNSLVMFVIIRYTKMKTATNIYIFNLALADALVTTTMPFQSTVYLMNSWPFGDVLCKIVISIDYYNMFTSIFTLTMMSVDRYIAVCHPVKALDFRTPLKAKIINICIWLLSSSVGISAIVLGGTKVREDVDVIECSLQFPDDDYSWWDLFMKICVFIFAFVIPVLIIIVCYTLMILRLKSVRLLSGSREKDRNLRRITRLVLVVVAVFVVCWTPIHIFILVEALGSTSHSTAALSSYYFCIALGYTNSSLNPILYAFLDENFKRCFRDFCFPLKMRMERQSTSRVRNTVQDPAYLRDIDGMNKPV

Turning to `Cc1cc(O)cc(C)c1C[C@H](N)C(=O)N[C@@H](C)C(=O)NCC(=O)N[C@@H](Cc1ccccc1)C(=O)N[C@@H](CC(C)C)C(N)=O`, the concentration for half-maximal inhibition (IC50) in test [1] was determined as 0.212 nM; in test [3] it was 0.586 nM. In test [2], this compound showed an inhibitory constant (Ki) of over 10000 nM.
The compound `Cc1cc(O)cc(C)c1C[C@H](C)C(=O)N[C@@H](C)C(=O)NCC(=O)N[C@@H](Cc1ccccc1)C(=O)N[C@@H](CC(C)C)C(N)=O` (X1-AGFL-NH2) displayed a Ki in test [2] of over 10000 nM. In addition, the Ke in test [4] stood at 154 nM; in test [5] it was 28.1 nM.
